From article PMC12641067 (Clinical Pharmacology and Therapeutics, 2025)
Values joined by “and” are separate entries in the source; they are usually repeats but may differ in a detail not shown here. Equal entries are not always repeated. Structures can show the parent of a compound that is named as a salt. Where two headings read alike, the source gives them in different places. Values belong to the molecule of their own block, whether it stands above or below them.

Tests used:
[1] = cited from earlier work
[2] = cited from earlier work; remark: listed apart in the source
[3] = GCDCA-S CLh and fe inferred from other reported clinical DDI studies; format: in vivo, human
Method: Verification of GCDCA-S fe estimated in this study
The validity of GCDCA-S CLh and renal excretion fraction (fe) estimated in this study was evaluated by incorporating the GCDCA-S mean plasma concentration profile in other reported clinical DDI studies into the developed POPPK models. In the absence of inhibitors, under steady-state conditions (where dC/dt=0), GCDCA-S ksyn is expressed as shown in Equation 13. In the presence of rifampicin, at t=Tmax (where dC/dt=0), GCDCA-S ksyn is expressed as shown in Equation 14. By solving equation 13 and 14, CLh can be derived as shown in Equation 15. The CLh and fe values inferred from data obtained in each […]
ksyn = Cbaseline × CLh + Cbaseline × CLR (Eq.13)
k = C × CLh + C × CL (Eq.14) […]
CL = CL × Cmax−Cbaseline > CL × Cmax−Cbaseline (Eq.15)
h R Cbaseline − Cmax × 1 R Cbaseline where Cbaseline (µM) is plasma baseline concentration, Cmax (µM) is maximum plasma concentration, ksyn (µmol/h) is the zero-order synthesis rate, CLh (L/h) is hepatic clearance, CLR (L/h) is renal clearance, Cu,RIF (µM) is unbound plasma concentration of rifampicin, Ki,u,OATP1B3 (µM) is unbound inhibition constant against OATP1B3 for rifampicin.
Table S6. GCDCA-S CLh and fe inferred from other reported clinical DDI studies Reported values Inferred values Ref […]
Cbaseline, plasma baseline concentration of GCDCA-S; Cmax, maximum plasma concentration of GCDCA-S; fe, fraction excreted in urine of GCDCA-S; CLh, hepatic clearance of GCDCA-S; CLR, renal clearance […]
a Average concentration from 0 to 24hours. b The CLR value reported by Willemin et al.17 was used for calculation. Even when using the reported CLR values from other studies, the corresponding increase in CLh ensures that the estimated fe value in this calculation remains unchanged.

[4] = Synthesis rate of precursor bile acids and inferred GCDCA-S ksyn; design: species or system human
Text: Verification of GCDCA-S ksyn estimated in this study
Literature data on the SULT2A1-mediated sulfation rate of GCDCA were not available. To evaluate the validity of GCDCA-S ksyn estimated by the POPPK model, GCDCA-S ksyn was assumed to be constrained by the synthesis rate of its precursor bile acids, and an inference was made based on the reported ksyn value of the corresponding precursors (CDCA and GCDCA).
In the absence of an inhibitor, ksyn of bile acids in the turnover model is represented by Equation 11.
Under steady-state conditions (where dC/dt=0), and given that the values of CLR of GCDCA-S and its corresponding precursors are relatively small compared to their CLh, ksyn of bile acids is expressed by Equation 12.10,11 It has been reported that the biliary excretion of bile acid sulfates is slower than that of their unsulfated forms,10,12 and assuming CLh,GCDCA-S < CLh,precursors, GCDCA-S ksyn was inferred, as […]
dt = [ksyn − (Cbile acid × CLh + Cbile acid × CLR)] × Vc (Eq.11)
ksyn = Cbile acid × CLh (Eq.12) where C (µM) is plasma concentration, ksyn (µmol/h) is the zero-order synthesis rate, CLh (L/h) is hepatic clearance, CLR (L/h) is renal clearance, VC (L) is the volume of distribution.
Table S5. GCDCA-S ksyn inferred from the ksyn of its corresponding precursors Biomarker Plasma baseline (nM) Denovo ksyn (µmol/h)
Reported value Ref Reported value Ref Notes
Biomarker Plasma baseline (nM) Inferred ksyn (µmol/h)
< 3.0 Based on information 1 […]
< 2.2 Based on information 3 aAveraged Cmean value of the baseline and control groups. bSynthesis rate of unconjugated chenodeoxycholic acid. cAveraged synthesis rate of chenodeoxycholic acid reported in six studies. dSynthesis rate of chenodeoxycholic acid-glycine.

[5] = Plasma baseline concentration of bile acid biomarkers in clinical studies; format: in vivo, human; conditions: Study #3 (unpublished data); average concentration 0 to 24 hours, no inhibitor
Method: (§1) Individual plasma and urine data of GCDCA‐S in healthy subjects were obtained from three clinical studies. Tatosian et al.[18] (study #1) consisted of two occasions: on both occasions, a microdose probe drug cocktail for multiple clinically relevant transporters was administered, with a single oral dose of 600 mg rifampicin co‐administered on the second occasion (n = 6; 3 males, 3 females). Willemin et al.[22] (study #2) was a two‐phase, cross‐over study with a 21‐day washout period between the two phases. […] Study #3 consists of unpublished data from the same study design as reported by Willemin et al. (n = 12; 12 males).[22]
Details of the clinical studies are in Table S1 . […] Simulations were conducted in agreement with the reported study designs. The median (50th percentile) of the predicted concentrations, along with the 90% prediction interval (5th and 95th percentiles), was plotted and compared against the observed data.
Table S1. […]
Cbaseline, GCDCA-S plasma baseline concentration in the absence of inhibitors. a Plasma concentration of subjects with SLCO1B1 c.521TT genotype were used for model verification. b In both occasions, Letermovir 480mg was administered, and it has been reported that single-dose Letermovir led to small increases in GCDCA-S concentrations vs. predose levels. c Calculated based on the reported plasma AUC0-24h.

[6] = monkey, in vivo; cited from earlier work
[7] = baseline and interaction profile after rifampicin administration; cited from earlier work
[8] = Population PK turnover model of GCDCA-S (plasma and urine data); format: in vivo, human
Method: as §1
(§2) Models were evaluated using visual predictive check (VPC) plots, goodness‐of‐fit (GOF) plots, parameter uncertainty, and changes in objective function. Model visualization and simulations were conducted in MATLAB 2024a (MathWorks, Natick, MA, USA) and Graph Pad Prism 10.2.2 (GraphPad software, La Jolla, CA, USA).
(§3) The structural model for rifampicin was based on our previous report,[33] and represents a one‐compartment model with zero‐order absorption and linear elimination.
Different functions for evaluating diurnal fluctuation (e.g., Bateman, Power function) were investigated and applied to the synthesis rate in the GCDCA‐S model.
(§4) The models for rifampicin, probenecid, and GCDCA‐S incorporated both inter‐individual variability for a number of model parameters (assuming log‐normal distribution) and residual unexplained variability (using a combination of proportional and additive error models).

[9] = human, in vivo; cited from earlier work
[10] = Population PK model of probenecid (plasma data); format: in vivo, human; conditions: population estimate (RSE%)
Method: as §1, §2, §3, §4

OATP1B transporters = conditions: in vitro; cited from earlier work
[11] = design: method as in PMID 19131563, PMID 1150035, PMID 955496, PMID 34686523; conditions: healthy human volunteers; cited from earlier work
[12] = averaged Cmean value of the baseline and control groups
[13] = information 2 (CDCA, average of six studies) and 3 (chenodeoxycholic acid-glycine)
[14] = final model (without sex effect), population estimate (RSE%)
[15] = model with sex effect, population estimate (RSE%)

SMILES: C[C@H](CCC(=O)O)[C@H]1CC[C@H]2[C@@H]3[C@H](O)C[C@@H]4C[C@H](O)CC[C@]4(C)[C@H]3CC[C@]12C [CDCA, chenodeoxycholic acid]
Plasma baseline [1, 12]: 510 nM
Denovo ksyn [2, 13]: 17 µmol/h
Denovo ksyn ([2]; synthesis rate of unconjugated chenodeoxycholic acid (information 1)): 18 µmol/h

SMILES: CC(CCC(=O)NCC(=O)O)C1CCC2C3C(O)CC4CC(O)CCC4(C)C3CCC12C (centres unmarked) [GCDCA, glycochenodeoxycholic acid]
Plasma baseline [1, 12]: 540 nM
Denovo ksyn [2, 13]: 14 µmol/h

SMILES: C[C@H](CCC(=O)NCC(=O)O)[C@H]1CC[C@H]2[C@@H]3[C@H](O)C[C@@H]4C[C@H](OS(=O)(=O)O)CC[C@]4(C)[C@H]3CC[C@]12C [GCDCA‐S, Glycochenodeoxycholic acid 3‐O‐sulfate]
fe (inferred) ([3]; from data of ref 2): < 6.6%
fe (inferred) ([3]; from data of ref 3): < 6.9%
fe (inferred) ([3]; from data of ref 4): < 3.3%
fe (inferred) ([3]; from data of ref 16): < 3.1%
Inferred ksyn ([4]; based on information 1): < 3.0 µmol/h
Inferred ksyn ([4]; based on information 2): < 2.8 µmol/h
Inferred ksyn ([4]; based on information 3): < 2.2 µmol/h
Cbaseline [5]: 87 nM
fraction excreted in urine (f e) [6]: < 1%
difference in plasma concentrations, chronic kidney disease patients relative to healthy individuals [7]: no significant difference
Plasma baseline ([1]; human, in vivo): 85 nM
fraction excreted in urine (f e) ([8]; estimated from POP-PK model): < 5%
V c,GCDCA–S ([8]; final model (without sex effect), fixed at value initially estimated from the POP-PK model): 4.8 L and 4.8 (FIXED) L
CL h,GCDCA–S [8, 14]: 15 (13) L/h
ksyn [8, 14]: 1.0 (18) μmol/h
biliary excretion as share of elimination ([8]; from POP-PK model): ~ 95% and > 95%
Vc, GCDCAS ([8]; model with sex effect, fixed): 4.8 L
CLR, GCDCAS [8, 15]: 0.31 (8) L/h
CLh, GCDCAS [8, 15]: 14 (13) L/h
COVSEX (fractional change in ksyn in women relative to men) [8, 15]: 0.065 (404)
ksyn [8, 15]: 1.0 (18) μmol/h
CLR [9]: 0.37 L/h

clearance ([10]; both sexes, human, plasma, oral, 500 mg): 15.8 mL/min
V PROB [10]: 17 (10) L
ka PROB ([10]; 500 mg oral approx. every 6 h): 1.1 (37) /h
SMILES: CCCN(CCC)S(=O)(=O)c1ccc(C(=O)O)cc1 [PROB, probenecid]
inhibition of OATP1B transporters (OATP1B transporters): weakly inhibits

SMILES: C[C@H](CCC(=O)O)[C@H]1CC[C@H]2[C@@H]3CC[C@@H]4C[C@H](OS(=O)(=O)O)CC[C@]4(C)[C@H]3CC[C@]12C [lithocholic acid sulfate]
fraction excreted in urine (f e) [11]: < 5%
